Results published in patent US12532889B2, “Herbicidal compositions comprising glufosinate” (BASF SE, priority 2023, dated 2026).
Values joined by “and” are separate entries in the source; they are usually repeats but may differ in a detail not shown here. Identical values can stand only once.

How the values were obtained:
Assay in all cases: Post-emergence application in field trials (Example A)
Assay type in all cases: in vivo
[1] = tested on: BOILF (Spermacoce latifolia); settings: Table 1.16, A-1 25, B-2 400 g ai/ha, 21 DAT, water 200 l/ha
Description: (§1) In the examples below, using the method of S. R. Colby (1967) “Calculating synergistic and antagonistic responses of herbicide combinations”, Weeds 15, p. 22ff., the value E, which is expected if the activity of the individual active compounds is only additive, was calculated:
(§2) [formula] • where • X=percent activity using active herbicide A at an application rate a; • Y=percent activity using active herbicide B (e.g. glufosinate) at an application rate b; • E=expected activity (in %) by A+B at application rates a+b.
(§3) If the value found experimentally is higher than the value E calculated according to Colby, a synergistic effect is present.
(§4) On field test sites, natural weed infestation or seeded weeds were treated post-emergence of the weeds.
(§5) In the field trials, the weeds were treated as indicated below.
(§6) In the following experiments, the herbicidal activity for the individual herbicidal compositions (solo and mixture applications) was assessed at the indicated days after treatment (DAT). The assessments for the damage on undesired weeds caused by the composition was carried out using a scale from 0 to 100%, compared to the untreated control plants. Here, 0 means no damage and 100 means complete destruction of the plants.

CYPIR (Cyperus iria) = settings: Table 2.1, CYPIR growth stage 13-14, height 3-5 cm, 14 DAT, water 300 l/ha
Description: as §1, §2, §3, §4, §5, §6

[2] = tested on: LOLMU (Lolium multiflorum)
Description: as §1, §2, §3, §4, §5, §6

IPOTR (Ipomoea triloba) = settings: 21 DAT
Description: as §1, §2, §3, §4, §5, §6

[3] = tested on: HORVW (Hordeum vulgare (winter barley)); settings: B-2 400 g ai/ha, growth stage 23-29, height 20-25 cm
Description: as §1, §2, §3, §4, §5, §6

AVEFA (Avena fatua) = settings: Table 3.1; AVEFA growth stage 22-24, height 18-29 cm; A-1 12.5, B-2 500 g ai/ha; 28 DAT; water 100 l/ha
Description: as §1, §2, §3, §4, §5, §6

[4] = tested on: DIGSA (Digitaria sanguinalis); settings: for % Herbicidal activity: B-2 400 g ai/ha, height 10-15 cm; for % herbicidal activity: Table 4.1, DIGSA height 2-8 cm, water 140 l/ha
Description: as §1, §2, §3, §4, §5, §6

AVESG (Avena strigosa) = settings: Table 1.6; AVESG growth stage 11-21, height 5-10 cm; A-1 25, B-2 400 g ai/ha; 14 DAT; water 200 l/ha
Description: as §1, §2, §3, §4, §5, §6

[5] = tested on: AMAPA (Amaranthus palmeri); settings: Table 1.27, AMAPA height 30 cm, 21 DAT, water 200 l/ha
Description: as §1, §2, §3, §4, §5, §6

[6] = tested on: CYPES (Cyperus esculentus); settings: 21 DAT, water 140 l/ha
Description: as §1, §2, §3, §4, §5, §6

CNDSS (Conyza sp.) = settings: Table 1.5; CNDSS growth stage 26-59, height 15-55 cm; A-1 50, B-2 600 g ai/ha; 14 DAT; water 200 l/ha
Description: as §1, §2, §3, §4, §5, §6

ZEAMX (Zea mays) = tested on: ZEAMX (Zea mays)
Description: as §1, §2, §3, §4, §5, §6

[7] = tested on: ECHCG (Echinocloa crus-galli); settings: B-2 400 g ai/ha, growth stage 23-30, height 15-20 cm
Description: as §1, §2, §3, §4, §5, §6

[8] = 7 DAT, B-2 400 g ai/ha, growth stage 22-25, height 20-25 cm

How did the “% herbicidal activity” value [1] turn out when `CP(=O)(O)CCC(N)C(=O)O` (stereo not drawn) [B-2, glufosinate-ammonium] was run?
The value was 73%.

And the “% herbicidal activity” value (CYPIR (Cyperus iria); A-1 12.5, B-2 500 g ai/ha)?
The value was 77%.

What about the “% herbicidal activity” value (CYPIR (Cyperus iria); A-1 25, B-2 500 g ai/ha) of the same compound?
Its value is 77%.

What about the “% Herbicidal activity” value [2, 8] of the same compound?
Its value is 70%.

What about the “% herbicidal activity” value [2, 8] of the same compound?
The value was 50%.

And the “% herbicidal activity” value ([2]; 21 DAT, B-2 400 g ai/ha, growth stage 22-25, height 20-25 cm)?
The value was 30%.

And the “% Herbicidal activity” value ([2]; 28 DAT, B-2 400 g ai/ha, growth stage 22-25, height 20-25 cm)?
The value was 40%.

And the “% herbicidal activity” value ([2]; Table 1.28, LOLMU growth stage 11-23, height 5-10 cm, A-1 25, B-2 400 g ai/ha, 28 DAT, water 200 l/ha)?
The value was 68%.

And the “% herbicidal activity” value (IPOTR (Ipomoea triloba); Table 1.11, A-1 25, B-2 400 g ai/ha, water 100 l/ha)?
Its value is 60%.

What about the “% herbicidal activity” value (IPOTR (Ipomoea triloba); Table 1.16, A-1 25, B-2 400 g ai/ha, water 200 l/ha) of the same compound?
Its value is 68%.

And the “% Herbicidal activity” value ([3]; 7 DAT)?
Its value is 60%.

What about the “% Herbicidal activity” value ([3]; 21 DAT) of the same compound?
The value was 30%.

What about the “% herbicidal activity” value ([3]; 21 DAT) of the same compound?
Its value is 40%.

What about the “% herbicidal activity” value (AVEFA (Avena fatua)) of the same compound?
The value was 68%.

What about the “% Herbicidal activity” value ([4]; 20 DAT, growth stage 21-22) of the same compound?
The value was 20%.

And the “% Herbicidal activity” value ([4]; 21 DAT, growth stage 22)?
Its value is 75%.

What about the “% Herbicidal activity” value ([4]; 41 DAT, growth stage 22) of the same compound?
The value was 55%.

And the “% herbicidal activity” value ([4]; A-1 12.5, B-2 655 g ai/ha, 21 DAT)?
Its value is 49%.

And the “% herbicidal activity” value ([4]; A-1 25, B-2 655 g ai/ha, 21 DAT)?
The value was 49%.

What about the “% herbicidal activity” value ([4]; A-1 50, B-2 655 g ai/ha, 21 DAT) of the same compound?
The value was 49%.

And the “% herbicidal activity” value (AVESG (Avena strigosa))?
The value was 83%.

And the “% herbicidal activity” value ([5]; A-1 12.5, B-2 400 g ai/ha)?
Its value is 20%.

And the “% herbicidal activity” value ([5]; A-1 25, B-2 400 g ai/ha)?
Its value is 20%.

What about the “% herbicidal activity” value ([6]; Table 4.2, A-1 25, B-2 655 g ai/ha) of the same compound?
The value was 18%.

What about the “% herbicidal activity” value ([6]; Table 4.2, A-1 50, B-2 655 g ai/ha) of the same compound?
The value was 18%.

And the “% herbicidal activity” value (CNDSS (Conyza sp.))?
Its value is 90%.

And the “% herbicidal activity” value (ZEAMX (Zea mays); 7 DAT, B-2 400 g ai/ha, growth stage 15-16, height 50-60 cm)?
Its value is 75%.

And the “% Herbicidal activity” value (ZEAMX (Zea mays); 21 DAT, B-2 400 g ai/ha, growth stage 15-16, height 27-33 cm)?
Its value is 65%.

What about the “% herbicidal activity” value (ZEAMX (Zea mays); 21 DAT, B-2 400 g ai/ha, growth stage 15-16, height 50-60 cm) of the same compound?
Its value is 75%.

And the “% herbicidal activity” value (ZEAMX (Zea mays); 28 DAT, B-2 400 g ai/ha, growth stage 15-16, height 50-60 cm)?
The value was 40%.

What about the “% herbicidal activity” value (ZEAMX (Zea mays); Table 1.12, ZEAMX volunteer corn, A-1 50, B-2 400 g ai/ha, 21 DAT, water 100 l/ha) of the same compound?
The value was 47%.

And the “% Herbicidal activity” value ([7]; 7 DAT)?
The value was 60%.

What about the “% herbicidal activity” value ([7]; 7 DAT) of the same compound?
The value was 40% and 60%.

What about the “% Herbicidal activity” value ([7]; 21 DAT) of the same compound?
The value was 60%.

And the “% herbicidal activity” value ([7]; 21 DAT)?
The value was 60%.

What about the “% Herbicidal activity” value ([7]; 28 DAT) of the same compound?
The value was 60%.
